Test results from patent US20150246946A1, “PEPTIDES AND METHODS FOR TREATING CANCER” (AGENCY FOR SCIENCE, TECHNOLOGY AND RESEARCH, priority 2012, published 2015).
Bridges are numbered along the chain shown (N, C = ends). [ ]: non-standard residue; d: D form. R8 = C=CCCCCCC[C@@](C)(N)C(=O)O; S5 = C=CCCC[C@](C)(N)C(=O)O; FAM = carboxyfluorescein

Assays:
[1] = biological target: T1, Mdm2 (1-125) (Homo sapiens, UniProt Q00987); assay: competitive fluorescence polarization/anisotropy, apparent Kd against Mdm2; assay type: binding
T1 construct: Mdm2 (1-125) and Mdm4 (1-125) were ligated into the GST fusion expression vector pGEX-6P-1; GST (N, cleaved yes); made in house; host or cells: E. coli BL21 DE3
Experimental: (§1) The cells expressing the GST fusion constructs were grown in LB medium at 37° C. to an OD600 of ˜0.6 and induction was started with 1 mM IPTG and carried out overnight at room temperature. Cells were harvested by centrifugation and the cell pellets were re-suspended in 50 mM Tris pH 8.0, 10% sucrose and were then sonicated. The sonicated sample was centrifuged for 60 mins at 17,000 g at 4° C. […] The column was then further washed by 6 volumes of wash buffer. Mdm2 and Mdm4 were then purified from the column by cleavage with Precission (GE Lifesciences) protease. 10 units of precission protease, in one column volume of PBS with 1 mM DTT buffer, were injected onto the column. The cleavage reaction was allowed to proceed overnight at 4° C. The cleaved protein was then eluted of the column with wash buffer. Protein fractions were analyzed with SDS page gel and concentrated using a Centricon (3.5 kDa MWCO) concentrator, Millipore. Mdm2 and Mdm4 protein samples were then dialyzed into a buffer solution containing 20 mM Bis-Tris, pH 6.5, 0.05M NaCl with 1 mM DTT and loaded onto a monoS column pre-equilibrated in buffer A (20 mM Bis-Tris, pH 6.5, 1 mM DTT). The column was then washed in 6 column volumes of buffer A and bound protein was eluted with a linear gradient of 1M NaCL over 25 column volumes. Protein fractions were analyzed with SDS page gel and concentrated using a Centricon (3.5 kDa MWCO) concentrator from Millipore.
(§2) Apparent Kd values were determined for a variety of molecules via competitive fluorescence anisotropy experiments. […] The competing molecules were then titrated against complex of the FAM labelled peptide and protein. Apparent Kd values were determined by fitting the experimental data to the equations shown below:
(§3) [L]st and [L]t denote labelled ligand and total unlabelled ligand input concentrations, respectively. Kd2 is the dissociation constant of the interaction between the unlabelled ligand and the protein. In all competitive types of experiments, it is assumed that [P]t>[L]st, otherwise considerable amounts of free labelled ligand would always be present and would interfere with measurements. […] The FAM-labelled peptide were dissolved in DMSO at 1 mM and diluted into experimental buffer. Readings were carried out with a Envision Multilabel Reader (PerkinElmer). […] All titrations were carried out in triplicate. Curve-fitting was carried out using Prism 4.0 (GraphPad).

[2] = biological target: T2, Mdm4 (1-125) (Homo sapiens, UniProt O15151); assay: competitive fluorescence polarization/anisotropy, apparent Kd against Mdm4; assay type: binding
T2 construct: Mdm4 (1-125) were ligated into the GST fusion expression vector pGEX-6P-1; GST (N, cleaved yes); made in house; host or cells: E. coli BL21 DE3
T2 sequence (O15151 1-125): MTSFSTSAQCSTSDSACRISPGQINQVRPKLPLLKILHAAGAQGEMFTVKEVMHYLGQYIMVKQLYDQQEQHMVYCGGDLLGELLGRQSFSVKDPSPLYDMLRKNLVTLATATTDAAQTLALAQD
Experimental: as §1, §2, §3

[3] = test system: p53 responsive LacZ reporter gene in T22 cell line; assay: T22 p53 β-galactosidase based reporter assay; assay type: cell-based, murine; details: for p53 transcriptional activity in T22 p53 reporter assay: 18 hours, DMEM with 10% FBS
Experimental: T22 cells, which were stably transfected with a p53 responsive […] reporter, were seeded into 96-well plate at a cell density of 8000 cells per well. […] Measurements were carried out using a Safire II multiplate reader (TECAN). Experiments were carried out independently twice.

[4] = biological target: T3, interaction of p53 with Mdm2 in living BHK cells (Homo sapiens, UniProt Q00987); assay: F2H co-localization assay p53:Mdm2; assay type: cell-based; details: 0 to 50 μM
T3 construct: the prey is a fusion of either Mdm2 (7-134) or Mdm4 (1-129) with RFP; host or cells: transgenic BHK cells with lac operator repeats

[5] = biological target: T4, interaction of p53 with Mdm4 in living BHK cells (Homo sapiens, UniProt O15151); assay: F2H co-localization assay p53:Mdm4; assay type: cell-based; details: 0 to 50 μM
T4 construct: Mdm4 (1-129) with RFP; host or cells: transgenic BHK cells with lac operator repeats
T4 sequence (O15151 1-129): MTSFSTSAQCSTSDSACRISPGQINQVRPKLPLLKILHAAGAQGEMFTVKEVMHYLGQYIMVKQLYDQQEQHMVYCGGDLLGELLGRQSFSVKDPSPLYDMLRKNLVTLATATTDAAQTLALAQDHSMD

[6] = test system: HCT-116 p53+/+ cells; assay: HCT-116 Western blot analysis; assay type: cell-based; details: 6 hours, with or without fetal calf serum, FIG. 2d
Experimental: Cells were treated with various compounds/vehicle controls at the time points and concentrations indicated also in acoy's media with 10% FBS. Cells were rinsed with PBS and then harvested in 200 μl of 1× NuPAGE LDS sample buffer supplied by Invitrogen (NP0008). Samples were then sonicated, heated to 90° C. for 5 mins, sonicated twice for 10 s and centrifuged at 13, 000 rpm for 5 minutes. Protein concentrations were measured by BCA assay (Pierce). Western blots were then performed using antibodies against actin (AC-15, Sigma) as a loading control, p21 (118 mouse monoclonal), Mdm2 (4B2 mouse monoclonal) and p53 (DO-1 mouse monoclonal).

[7] = test system: HCT-116 p53+/+ cells; assay: cell viability (CellTiter-Glo), HCT-116 p53+/+; assay type: cell-based; details: 24 hours
Text: (§4) Data was normalized to vehicle-treated controls.

[8] = test system: HCT-116 p53−/− cells; assay: cell viability (CellTiter-Glo), HCT-116 p53−/−; assay type: cell-based; details: 24 hours
Text: as §4

[9] = test system: HCT-116 p53+/+ cells; assay: Caspase-Glo 3/7 assay, HCT-116 p53+/+; assay type: cell-based; details: 24 hours
Text: as §4

[10] = test system: HCT-116 p53−/− cells; assay: Caspase-Glo 3/7 assay, HCT-116 p53−/−; assay type: cell-based; details: 24 hours
Text: as §4

[11] = test system: HCT116 p53+/+ cells; assay: cell cycle analysis (propidium iodide flow cytometry); assay type: cell-based; details: 24 hours; for cell cycle distribution at high concentrations: high concentration (FIG. 5); for cell cycle distribution at low concentrations: low concentration (FIG. 4c)
Experimental: Three hundred fifty thousand cells were then seeded per well in 6-well plates containing incubated overnight. […] A 1% DMSO vehicle control treatment was also carried out. Cells were washed with PBS and then detached from the plate surface by trypsinisation. […] Cells were spun down and resuspended with PI-staining solution containing RNase A. Cells were analyzed using an LSR II (Becton Dickinson).

[12] = test system: thymocytes from p53 wild-type mice; assay: cell viability in mouse thymocytes, p53 wild-type; assay type: cell-based; details: p53 wild-type vs p53 deficient mice, 24 hours, annexin V/PI
Experimental: Thymocytes were isolated from wild-type and p53^+/−mice (age 4-9 weeks) and kept in a PBS/FCS (2%) solution (ref). Cells were plated at a density of 1×10^6 per well in 24-well plates in medium [DMEM/Hepes (25 mM, pH 7.2), 5% FCS, penicillin/streptomycin, glutamine] and incubated at 37° C. with 2% C02. […] Cell were then analysed for viability using this procedure, cells were washed with cold PBS, and stained with FITC-labeled annexin V antibody (PharMingen) and PI (Sigma). The relative amounts of apoptotic cells were determined by binding of annexin V and subsequent fluorescence-activated cell sorter analysis. All values were normalized to the number of cells remaining viable in vehicle (1% DMSO) treated cultures derived from the same animal stained simultaneously. Data are representatives of n=4 independent experiments.

[13] = test system: p53 null thymocytes; assay: cell viability in mouse thymocytes, p53 null; assay type: cell-based, mice; details: high doses, 24 hours, annexin V/PI
[14] = test system: SJSA-1 cell line; assay: caspase 3/7 activity in SJSA-1 cell line; details: SJSA-1 cells, titration
[15] = biological target: T5, Mdm4 (1-125) (human, UniProt O15151 1-125); assay: direct fluorescence anisotropy titration of Mdm4 (1-125) against 50 nM labelled peptide, 1:1 model
T5 construct: range 1-125; also called MDMX; Hdm4
T5 sequence (looked up): T2 sequence (O15151 1-125)

[16] = biological target: T6, Mdm2 (1-125) (human, UniProt Q00987 1-125); assay: competitive fluorescence polarization
T6 construct: range 1-125; also called Hdm2

[17] = biological target: T5, Mdm4 (1-125); assay: competitive fluorescence polarization
[18] = biological target: T6, Mdm2 (1-125); assay: apparent Kd, competitive fluorescence polarization; displacement of FAM-…-NH2 from Mdm2 (1-125)
[19] = biological target: T5, Mdm4 (1-125); assay: apparent Kd, competitive fluorescence polarization; displacement of FAM-…-NH2 from Mdm4 (1-125)

T3 sequence (Q00987 7-134): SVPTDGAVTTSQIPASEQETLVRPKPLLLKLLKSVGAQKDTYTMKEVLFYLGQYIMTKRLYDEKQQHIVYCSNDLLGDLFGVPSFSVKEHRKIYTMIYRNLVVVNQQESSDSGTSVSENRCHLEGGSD
T6 sequence (Q00987 1-125 limits assumed): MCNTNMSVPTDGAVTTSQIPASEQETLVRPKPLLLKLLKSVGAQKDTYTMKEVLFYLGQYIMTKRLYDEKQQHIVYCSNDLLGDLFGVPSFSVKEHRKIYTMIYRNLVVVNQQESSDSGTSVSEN
T1 sequence (Q00987 1-125): as the sequence (Q00987 1-125 limits assumed) above

CC(=O)N[C@H](C(=O)N[C@@H](CO)C(=O)N[C@@H](Cc1ccccc1)C(=O)N[C@]1(C)CCCCCCC=CCCC[C@@](C)(C(N)=O)NC(=O)[C@H](CC(C)C)NC(=O)[C@H](CC(C)C)NC(=O)[C@H](C)NC(=O)[C@H](Cc2c[nH]c3ccccc23)NC(=O)[C@H](Cc2ccc(O)cc2)NC(=O)[C@H](CCC(=O)O)NC1=O)[C@@H](C)O [sMTide-02, Ac-^1TSFXEYWALLX^11-NH2]
increase in Kd against Mdm2 in comparison to unstapled counterpart ([1]; stapled vs unstapled peptide): negligible increase
Kd [2]: 45.7 ± 7.65 nM
increase in Kd against Mdm4 in comparison to unstapled counterpart ([2]; stapled vs unstapled peptide): 2 fold
p53 transcriptional activity in T22 p53 reporter assay [3]: strongest p53 transcriptional response ever seen in this assay
effect of PGP inhibitor PSC-883 on p53 response in the reporter assay ([3]; with 20 μM PSC-883 vs without): significantly improved the sensitivity of the p53 response
disruption of p53 interaction with Mdm2 (F2H) [4]: dissociate Mdm2 from p53
disruption of p53 interaction with Mdm4 (F2H) [5]: greater potency against Mdm4
effect of serum on activity [6]: significantly improved potency in the absence of serum
cell viability [7]: no significant decrease in the viability
cell viability [8]: no significant decrease in the viability
caspase 3/7 activity [9]: negligible caspase 3/7 activity
caspase 3/7 activity [10]: negligible caspase 3/7 activity
cell cycle distribution at high concentrations [11]: G2 arrest
cell cycle distribution at low concentrations [11]: G2 arrest
cell death in thymocytes [12]: induced cell death in a p53-dependent manner
apoptosis in p53 null thymocytes [13]: did not
induction of caspase 3/7 activity [14]: induced caspase 3/7 activity at substantially higher concentrations than nutlin

CC(=O)N[C@H](C(=O)N[C@@H](CO)C(=O)N[C@@H](Cc1ccccc1)C(=O)N[C@]1(C)CCCCCCC=CCCC[C@@](C)(C(N)=O)NC(=O)[C@H](CC(C)C)NC(=O)[C@H](CC(C)C)NC(=O)[C@H](C)NC(=O)[C@H](Cc2c[nH]c3cc(Cl)ccc23)NC(=O)[C@H](Cc2ccc(O)cc2)NC(=O)[C@H](CCC(=O)O)NC1=O)[C@@H](C)O [sMTide-02A, Ac-^1TSFXEY(L-6-Cl)WALLX^11-NH2]
preference between Mdm2 and Mdm4 in binding ([1]; comparison of apparent Kds): preference for Mdm2 over Mdm4
Mdm4 Kd ([2]; apparent Kd, competitive fluorescence polarization, Mdm4 75 nM, FAM peptide 50 nM): significantly attenuated
p53 transcriptional activity in T22 p53 reporter assay [3]: much higher fold induction of p53 transcriptional activity than the unmodified sMTide-02
disruption of p53 interaction with Mdm2 (F2H) [4]: dissociate Mdm2 from p53
effect of serum on activity [6]: significantly improved potency in the absence of serum
cell viability [7]: no significant decrease in the viability
cell viability [8]: no significant decrease in the viability
caspase 3/7 activity [9]: negligible caspase 3/7 activity
caspase 3/7 activity [10]: negligible caspase 3/7 activity
cell cycle distribution at high concentrations [11]: G2 arrest
cell cycle distribution at low concentrations [11]: G2 arrest
cell death in thymocytes [12]: induced cell death in a p53-dependent manner
apoptosis in p53 null thymocytes [13]: to a certain extent
induction of caspase 3/7 activity [14]: induced caspase 3/7 activity at substantially higher concentrations than nutlin

B1: carboxyfluorescein (FAM) labelled 12-1 peptide (FAM-RFMDYWEGL-NH2) (peptide)
peptide: {FAM}-RFMDYWEGL-NH2
notes: Labelled probe of the fluorescence anisotropy assays; also called FAM labeled probe
Kd [15]: 4.2 nM

B2: sMTide-01 (peptide)
peptide: Ac-TSF[R8]EYWNLL[S5]-NH2
modifications: staple 4-11
SMILES: CC(=O)N[C@H](C(=O)N[C@@H](CO)C(=O)N[C@@H](Cc1ccccc1)C(=O)N[C@]1(C)CCCCCCC=CCCC[C@@](C)(C(N)=O)NC(=O)[C@H](CC(C)C)NC(=O)[C@H](CC(C)C)NC(=O)[C@H](CC(N)=O)NC(=O)[C@H](Cc2c[nH]c3ccccc23)NC(=O)[C@H](Cc2ccc(O)cc2)NC(=O)[C@H](CCC(=O)O)NC1=O)[C@@H](C)O
notes: Stapled derivative of MTide-01; also called Ac-TSFXEYWNLLX-NH2
fold increase in Kd against its unstapled counterpart (MTide-01) [16]: ~2 fold
fold increase in Kd against its unstapled counterpart (MTide-01) [17]: ~4 fold
Kd [18]: 87 nM
Kd [19]: 118 nM
